pEC50: −log10 of the molar value. Where a name gives a salt, the structure may show the parent alone.
Biological target: human activated kallikrein enzyme (Homo sapiens, UniProt P03952)
Assay: Inhibition of human activated plasma kallikrein, fluorogenic PFR-AMC substrate, 500 pM enzyme format
Assay type: biochemical
Conditions: 500 pM activated kallikrein; 300 μM PFR-AMC; 30 min preincubation; 10 min room temperature; pH 7.5; read-out: Primary Dose Response Assay: Average EC50
Procedure, shortened: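 Using fluorogenic PFR-AMC at 300 μM, cleavage by 500 pM human activated kallikrein ran 10 min at room temperature, read at 460 nm emission (380 nm excitation). Enzyme and compounds were first preincubated 30 min in 20 mM Tris pH 7.5, 150 mM NaCl, 1 mM EDTA, 0.1% PEG-400, 0.1% Triton X-100.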

human activated kallikrein enzyme, sequence (P03952 391-638 limits assumed): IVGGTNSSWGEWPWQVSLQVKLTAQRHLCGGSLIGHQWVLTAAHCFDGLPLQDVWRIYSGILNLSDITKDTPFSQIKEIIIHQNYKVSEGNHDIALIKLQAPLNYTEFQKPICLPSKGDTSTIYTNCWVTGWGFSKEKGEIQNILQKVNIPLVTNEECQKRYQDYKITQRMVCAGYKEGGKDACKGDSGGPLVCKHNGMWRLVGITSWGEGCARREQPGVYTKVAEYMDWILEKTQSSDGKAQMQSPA
human activated kallikrein enzyme, sequence (P03952 20-390 partner limits assumed): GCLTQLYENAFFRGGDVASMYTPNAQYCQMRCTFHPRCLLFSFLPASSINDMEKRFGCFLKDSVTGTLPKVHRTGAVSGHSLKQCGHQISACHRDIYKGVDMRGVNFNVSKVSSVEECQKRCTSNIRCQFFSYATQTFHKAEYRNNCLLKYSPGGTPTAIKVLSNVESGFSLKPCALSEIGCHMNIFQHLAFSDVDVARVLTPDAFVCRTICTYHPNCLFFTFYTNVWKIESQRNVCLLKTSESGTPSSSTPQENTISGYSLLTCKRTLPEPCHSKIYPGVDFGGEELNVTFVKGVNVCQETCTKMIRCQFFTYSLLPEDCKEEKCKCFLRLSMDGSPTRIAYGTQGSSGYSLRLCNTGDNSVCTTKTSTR

pEC50	Compound
8.00 to 9.00	Cc1cc2c(N)nccc2c(C)c1CNc1cc(OCc2ccc3ncccc3c2)cnn1 [Example 409, 5,7-dimethyl-6-(((5-(quinolin-6-ylmethoxy)pyridazin-3-yl)amino)methyl)isoquinolin-1-amine]
6.00 to 7.00	Cc1cc2c(N)nccc2c(C)c1CNc1cc(OCc2ccc3nccn3c2)cnn1 [Example 410, 6-(((5-(imidazo[1,2-a]pyridin-6-ylmethoxy)pyridazin-3-yl)amino)methyl)-5,7-dimethylisoquinolin-1-amine]
7.00 to 8.00	Cc1cc2c(N)nccc2c(C)c1CNc1cc(OCc2cn3ccccc3n2)cnn1 [Example 411, 6-(((5-(imidazo[1,2-a]pyridin-2-ylmethoxy)pyridazin-3-yl)amino)methyl)-5,7-dimethylisoquinolin-1-amine]
> 9.00	Cc1ccc2cc(COc3cnnc(NCc4c(C)cc5c(N)nccc5c4C)c3)ccc2n1 [Example 412, 5,7-dimethyl-6-(((5-((2-methylquinolin-6-yl)methoxy)pyridazin-3-yl)amino)methyl)isoquinolin-1-amine]
8.00 to 9.00	Cc1cc2c(N)nccc2c(C)c1CNc1cc(OCc2ccc3c(cnn3C)c2)cnn1 [Example 413, 5,7-dimethyl-6-(((5-((1-methyl-1H-indazol-5-yl)methoxy)pyridazin-3-yl)amino)methyl)isoquinolin-1-amine]
< 6.00	Cc1cc2c(N)nccc2c(C)c1CNc1cc(OCc2cnc3ccccn23)cnn1 [Example 414, 6-(((5-(imidazo[1,2-a]pyridin-3-ylmethoxy)pyridazin-3-yl)amino)methyl)-5,7-dimethylisoquinolin-1-amine]
> 9.00	Cc1cc2c(N)nccc2c(C)c1CNc1cc(OCc2cnc3ccc(F)cc3c2)cnn1 [Example 415, 6-(((5-((6-fluoroquinolin-3-yl)methoxy)pyridazin-3-yl)amino)methyl)-5,7-dimethylisoquinolin-1-amine]
8.00 to 9.00	Cc1cc2c(N)nccc2c(C)c1CNc1cc(OCc2cc3cc(Cl)ccc3s2)cnn1 [Example 417, 6-(((5-((5-chlorobenzo[b]thiophen-2-yl)methoxy)pyridazin-3-yl)amino)methyl)-5,7-dimethylisoquinolin-1-amine, formic acid salt]
> 9.00	Cc1cc2c(N)nccc2c(C)c1CNc1cc(OCc2ccc3nc(C)c(C)nc3c2)cnn1 [Example 418, 6-(((5-((2,3-dimethylquinoxalin-6-yl)methoxy)pyridazin-3-yl)amino)methyl)-5,7-dimethylisoquinolin-1-amine, formic acid salt]
> 9.00	Cc1cnc2ccc(C(C)Oc3cnnc(NCc4c(C)cc5c(N)nccc5c4C)c3)cc2c1 (stereo not drawn) [Example 419, 5,7-dimethyl-6-(((5-(1-(3-methylquinolin-6-yl)ethoxy)pyridazin-3-yl)amino)methyl)isoquinolin-1-amine]
> 9.00	Cc1cc2c(N)nccc2c(C)c1CNc1cc(OC(C)c2ccc3ncc(Cl)cc3c2)cnn1 (stereo not drawn) [Example 420, 6-(((5-(1-(3-chloroquinolin-6-yl)ethoxy)pyridazin-3-yl)amino)methyl)-5,7-dimethylisoquinolin-1-amine formic acid salt]
8.00 to 9.00	Cc1cc2c(N)nccc2c(C)c1CNc1cc(OCc2ccc3nccc(C)c3c2)cnn1 [Example 421, 5,7-dimethyl-6-(((5-((4-methylquinolin-6-yl)methoxy)pyridazin-3-yl)amino)methyl)isoquinolin-1-amine, formic acid]
> 9.00	Cc1cc2c(N)nccc2c(C)c1CNc1cc(OCc2ccc3ncc(C(F)(F)F)cc3c2)cnn1 [Example 423, 5,7-dimethyl-6-(((5-((3-(trifluoromethyl)quinolin-6-yl)methoxy)pyridazin-3-yl)amino)methyl)isoquinolin-1-amine]
> 9.00	Cc1cc2c(N)nccc2c(C)c1CNc1cc(OCc2cn3cc(C(F)(F)F)ccc3n2)cnn1 [Example 424, 5,7-dimethyl-6-(((5-((6-(trifluoromethyl)imidazo[1,2-a]pyridin-2-yl)methoxy)pyridazin-3-yl)amino)methyl)isoquinolin-1-amine]
> 9.00	Cc1ccc2nc(COc3cnnc(NCc4c(C)cc5c(N)nccc5c4C)c3)cn2c1 [Example 425, 5,7-dimethyl-6-(((5-((6-methylimidazo[1,2-a]pyridin-2-yl)methoxy)pyridazin-3-yl)amino)methyl)isoquinolin-1-amine]
> 9.00	Cc1cc2c(N)nccc2c(C)c1CNc1cc(OCc2ccc(Oc3cccn(C)c3=O)cc2)cnn1 [Example 427, 3-(4-(((6-(((1-amino-5,7-dimethylisoquinolin-6-yl)methyl)amino)pyridazin-4-yl)oxy)methyl)phenoxy)-1-methylpyridin-2(1H)-one]
8.00 to 9.00	Cc1cc2c(N)nccc2c(C)c1CNc1cc(N(C)Cc2ccc3ncccc3c2)cnn1 [Example 428, N^3-((1-amino-5,7-dimethylisoquinolin-6-yl)methyl)-N^5-methyl-N^5-(quinolin-6-ylmethyl)pyridazine-3,5-diamine]

pEC50	Compound
7.00 to 8.00	Cc1cc2c(N)nccc2c(C)c1CNc1cc(OCc2csc(-c3ccccc3)n2)cnn1 [Example 430, 5,7-dimethyl-6-(((5-((2-phenylthiazol-4-yl)methoxy)pyridazin-3-yl)amino)methyl)isoquinolin-1-amine]
> 9.00	Cc1cc2c(N)nccc2c(C)c1CNc1cc(OCc2ccc(Cn3ccc(C4CC4)n3)cc2)cnn1 [Example 431, 6-(((5-((4-((3-cyclopropyl-1H-pyrazol-1-yl)methyl)benzyl)oxy)pyridazin-3-yl)amino)methyl)-5,7-dimethylisoquinolin-1-amine]
> 9.00	Cc1cc2c(N)nccc2c(C)c1CNc1cc(OCc2ccc(CN3CCCCC3=O)cc2)cnn1 [Example 433, 1-(4-(((6-(((1-amino-5,7-dimethylisoquinolin-6-yl)methyl)amino)pyridazin-4-yl)oxy)methyl)benzyl)piperidin-2-one]
> 9.00	Cc1cc2c(N)nccc2c(C)c1CNc1cc(OCc2ccc(CN3CCOCC3=O)cc2)cnn1 [Example 434, 4-(4-(((6-(((1-amino-5,7-dimethylisoquinolin-6-yl)methyl)amino)pyridazin-4-yl)oxy)methyl)benzyl)morpholin-3-one]
8.00 to 9.00	Cc1cc2c(N)nccc2c(C)c1CNc1cc(OCc2cccc(-n3ccccc3=O)c2)cnn1 [Example 435, 1-(3-(((6-(((1-amino-5,7-dimethylisoquinolin-6-yl)methyl)amino)pyridazin-4-yl)oxy)methyl)phenyl)pyridin-2(1H)-one]
> 9.00	Cc1cc2c(N)nccc2c(C)c1CNc1cc(OCc2ccc(Cn3ccccc3=O)cc2)cnn1 [Example 436, 1-(4-(((6-(((1-amino-5,7-dimethylisoquinolin-6-yl)methyl)amino)pyridazin-4-yl)oxy)methyl)benzyl)pyridin-2(1H)-one]
> 9.00	Cc1cc2c(N)nccc2c(C)c1CNc1cc(OCc2ccc(Cn3cccc(C4CC4)c3=O)cc2)cnn1 [Example 437, 1-(4-(((6-(((1-amino-5,7-dimethylisoquinolin-6-yl)methyl)amino)pyridazin-4-yl)oxy)methyl)benzyl)-3-cyclopropylpyridin-2(1H)-one]
8.00 to 9.00	Cc1cc2c(N)nccc2c(C)c1CNc1cc(OCc2ccc(-n3ccccc3=O)cc2)cnn1 [Example 438, 1-(4-(((6-(((1-amino-5,7-dimethylisoquinolin-6-yl)methyl)amino)pyridazin-4-yl)oxy)methyl)phenyl)pyridin-2(1H)-one]
> 9.00	Cc1cc2c(N)nccc2c(C)c1CNc1cc(OCc2ccc(Cc3ccn(C)n3)cc2)cnn1 [Example 439, 5,7-dimethyl-6-(((5-((4-((1-methyl-1H-pyrazol-3-yl)methyl)benzyl)oxy)pyridazin-3-yl)amino)methyl)isoquinolin-1-amine]
> 9.00	Cc1cc2c(N)nccc2c(C)c1CNc1cc(OCc2ccc(Cc3cccn(C)c3=O)cc2)cnn1 [Example 440, 3-(4-(((6-(((1-amino-5,7-dimethylisoquinolin-6-yl)methyl)amino)pyridazin-4-yl)oxy)methyl)benzyl)-1-methylpyridin-2(1H)-one]
8.00 to 9.00	Cc1cc2c(N)nccc2c(C)c1CNc1cc(OCc2ccc(-n3ccnc3)cc2)cnn1 [Example 441, 6-(((5-((4-(1H-imidazol-1-yl)benzyl)oxy)pyridazin-3-yl)amino)methyl)-5,7-dimethylisoquinolin-1-amine]
8.00 to 9.00	Cc1cc2c(N)nccc2c(C)c1CNc1cc(OCc2cnn(-c3ccccc3)c2)cnn1 [Example 442, 5,7-dimethyl-6-(((5-((1-phenyl-1H-pyrazol-4-yl)methoxy)pyridazin-3-yl)amino)methyl)isoquinolin-1-amine]
6.00 to 7.00	Cc1cc2c(N)nccc2c(C)c1CNc1cc(OCc2ccccc2)cnn1 [Example 443, 6-(((5-(benzyloxy)pyridazin-3-yl)amino)methyl)-5,7-dimethylisoquinolin-1-amine]
> 9.00	Cc1cc2c(N)nccc2c(C)c1CNc1cc(OCc2ccc(Cc3cccn4ccnc34)cc2)cnn1 [Example 444, 6-(((5-((4-(imidazo[1,2-a]pyridin-8-ylmethyl)benzyl)oxy)pyridazin-3-yl)amino)methyl)-5,7-dimethylisoquinolin-1-amine]
6.00 to 7.00	Cc1cc2c(N)nccc2c(C)c1CNc1cc(OCc2ccc(Cn3cccn3)nc2)cnn1 [Example 445, 6-(((5-((6-((1H-pyrazol-1-yl)methyl)pyridin-3-yl)methoxy)pyridazin-3-yl)amino)methyl)-5,7-dimethylisoquinolin-1-amine]
> 9.00	Cc1cc2c(N)nccc2c(C)c1CNc1cc(OCc2ccc(Cn3cccn3)cn2)cnn1 [Example 446, 6-(((5-((5-((1H-pyrazol-1-yl)methyl)pyridin-2-yl)methoxy)pyridazin-3-yl)amino)methyl)-5,7-dimethylisoquinolin-1-amine]
